The text below walks through data of article PMC8765781, “A platform of assays for the discovery of anti-Zika small-molecules with activity in a 3D-bioprinted outer-blood-retina model” (PLoS ONE, 2022).

The term AC50 denotes the midpoint of the concentration-response curve, whichever way the signal moves. As a reminder, the IC50 is the concentration at which inhibition is half-maximal.

Like-named read-outs stand apart in the source and are kept apart here. A value given as a limit tells only on which side of the number the result lay.

The test system of data set [1] is wild-type ZIKV (Ugandan MR766 strain) in Vero cells. As to the kind of experiment: ZIKV cytopathic effect (CPE) inhibition qHTS assay, CellTiter-Glo readout. Format: cell-based, Zika virus. As to conditions: for IC50: read-out: ZIKV-infection (CPE, ZIKV Antiviral Assays), IC50. In general terms: Protection from cytopathic effect is a common read-out in antiviral testing.

Data set [2] has as its system caspase-3 activity induced by ZIKV in Vero cells. As to the kind of experiment: cells. It counts as cell-based. As to conditions: read-out: Caspase 3 (ZIKV Antiviral Assays), IC50.
The subject of data set [3] is ZIKV-RLuc (Cambodian strain FSS13025). The data set is described as follows: microbe, parasite or virus in culture. The note with it: read-out: Rluc-ZIKV (ZIKV Antiviral Assays), IC50. It counts as cell-based, Zika virus.
For data set [4], the system named is ZIKV-mCherry (Cambodian strain FSS13025). As to the kind of experiment: microbe, parasite or virus in culture. It counts as cell-based, Zika virus.
Data set [5] is described as follows: in vitro. As to conditions: African green monkey.
Where [6] appears, read: Zika virus, Vero, read-out: Log AC50 (M) (converted).

Take `CC1=CC[C@]2(C(=O)O[C@@H]3O[C@H](CO[C@@H]4O[C@H](CO)[C@@H](O[C@@H]5O[C@@H](C)[C@H](O)[C@@H](O)[C@H]5O)[C@H](O)[C@H]4O)[C@@H](O)[C@H](O)[C@H]3O)CC[C@]3(C)C(CCC4[C@@]5(C)C[C@@H](O)[C@H](O)[C@@](C)(CO)C5CC[C@]43C)C2C1C` (stereo partly drawn) [NCGC00381125-01]: in data set [1], the “CC-v2 (curve class classification of the dose response curve)” value is reported as -3 and the Efficacy is -73.731. For the same compound, the AC50 in data set [1] (Zika virus, Vero) stood at 6.18e-06 M. Further, the IC50 in data set [1] (Zika virus, Vero, 48 h) stood at 6.18 µM. Further, in data set [1] (setting [6]), the half-maximal activity concentration (AC50) was 6.18e-06 M. Also, in data set [2] (Zika virus, Vero, 48 h), the IC50 is 0.01 µM. The IC50 in data set [3] (Zika virus, Vero, 48 h) amounted to 0.003 µM. Besides, in data set [4], the “CC-v2 (curve class of the dose response curve)” value is given as -1.4; the “Efficacy (difference between neutral response and maximum compound response)” value was -51.276; the “Max Resp (difference between neutral response and response at highest compound concentration)” value is -44.108. In data set [5], this compound gave a CC50 at 48 h of over 50 µM.

Consider `CC1(C)CC[C@]2(C(=O)O)CC[C@]3(C)C(=CCC4[C@@]5(C)C[C@H](O)[C@H](O[C@@H]6OC[C@H](O)[C@H](O)[C@H]6O)[C@@](C)(CO)C5CC[C@]43C)[C@@H]2C1` (stereo partly drawn) [NCGC00384893-01], for which the Efficacy in data set [1] was -24.539. In addition, the AC50 in data set [1] (Zika virus, Vero) is 5.44e-06 M; in data set [1] (setting [6]), 5.44e-06 M. For the same compound, the IC50 in data set [1] (Zika virus, Vero, 48 h) is 5.44 µM; in data set [2] (Zika virus, Vero, 48 h), over 48 µM; in data set [3] (Zika virus, Vero, 48 h), 9.81 µM. Further, the “CC-v2 (curve class of the dose response curve)” value in data set [4] was -1.4. Further, the “Efficacy (difference between neutral response and maximum compound response)” value in data set [4] is -59.557. The “Max Resp (difference between neutral response and response at highest compound concentration)” value in data set [4] is on record as -100.29. The compound further gave a CC50 at 48 h in data set [5] (Vero cells) of over 50 µM.

Regarding `CC1(C)CC2C3=CCC4[C@@]5(C)CC[C@H](OC6OCC(O)C(OC7OC(CO)C(O)C(O)C7O)C6O)C(C)(C)C5CC[C@@]4(C)[C@]3(C)C[C@H](O)[C@@]2(CO)[C@H](OC(=O)c2ccccc2)C1` (stereo partly drawn) [NCGC00347604-02], the AC50 in data set [1] (Zika virus, Vero, from Hill fit of the response curve, 50% of maximum activity response, 194 cherry-picked compounds, protocol name not given, read-out: AC50) is 7.78e-06 M; in data set [1] (Zika virus, Vero, potency in log units (Molar) from Hill fit of the response curve, 194 cherry-picked compounds, protocol name not given, read-out: Log AC50 (converted)), 7.78e-06 M. Further, the half-maximal inhibitory concentration (IC50) is 7.78 µM in data set [1] (Zika virus, Vero cells, wild-type ZIKV MOI 1, 48 hr, unit inferred); over 48 µM in data set [2] (Zika virus, ZIKV-infected Vero cells, 48 hr, unit inferred); 5.52 µM in data set [3] (Zika virus, Vero, 48 h). In data set [1] (curve class v2 (Inglese et al. 2006)), the “CC-v2 (curve class classification of the dose response curve)” value is on record as -3. This compound also came in with an Efficacy in data set [1] (difference between neutral response and maximum compound response) of -34.889. For the same compound, the “CC-v2 (curve class of the dose response curve)” value in data set [4] is given as -1.4. Also, the “Efficacy (difference between neutral response and maximum compound response)” value in data set [4] was -68.489. Also, the “Max Resp (difference between neutral response and response at highest compound concentration)” value in data set [4] is -100.29. The compound further had a CC50 in data set [5] of over 50 µM.

`C[C@@H]1O[C@@H](O[C@H]2[C@H](OC(=O)[C@]34CCC(C)(C)C[C@H]3C3=CCC5[C@@]6(C)C[C@H](O)[C@H](O[C@@H]7O[C@H](C(=O)O)[C@@H](O)[C@H](O)[C@H]7O)[C@@](C)(CO)C6[C@H](O)C[C@@]5(C)[C@]3(C)CC4)OC[C@H](O)[C@@H]2O)[C@H](O)[C@H](O)[C@H]1O[C@@H]1OC[C@@H](O)[C@H](O[C@@H]2O[C@@H](C)[CH][C@@H](O)[C@H]2O)[C@H]1O` (stereo partly drawn) [NCGC00384879-01]: the “CC-v2 (curve class classification of the dose response curve)” value in data set [1] is listed as -3. For the same compound, the Efficacy in data set [1] is listed as -56.214. Moreover, the AC50 was 4.36e-06 M in data set [1] (Zika virus, Vero); 4.36e-06 M in data set [1] (setting [6]); 6.35e-10 M in data set [4] (Zika virus, Vero); 6.35e-10 M in data set [4] (setting [6]). Moreover, the half-maximal inhibitory concentration (IC50) in data set [1] (Zika virus, Vero, 48 h) stood at 4.36 µM; in data set [2] (Zika virus, Vero, 48 h), 5.64 µM; in data set [3] (Zika virus, Vero, 48 h) it was 0.13 µM. The “CC-v2 (curve class of the dose response curve)” value in data set [4] was -1.2. In addition, the “Efficacy (difference between neutral response and maximum compound response)” value in data set [4] was -58.138. Also, the “Max Resp (difference between neutral response and response at highest compound concentration)” value in data set [4] was -66.904. The compound also registered a CC50 in data set [5] of over 50 µM.

`C=C(C)C(=O)O[C@H]1CC2=CC(C/C(C)=C/[C@H]3OC(=O)C(=C)[C@H]13)OC2=O` (stereo partly drawn) [NCGC00384526-01]: in data set [1], the “CC-v2 (curve class classification of the dose response curve)” value was -1.1 and the Efficacy is given as -93.113. The compound further returned an AC50 in data set [1] (Zika virus, Vero) of 1.43e-05 M. In addition, the concentration for half-maximal inhibition (IC50) in data set [1] (Zika virus, Vero, 48 h) is 14.3 µM. The half-maximal activity concentration (AC50) in data set [1] (setting [6]) is 1.43e-05 M. Also, the IC50 in data set [2] (Zika virus, Vero, 48 h) is 6.46 µM. In addition, in data set [3] (Zika virus, Vero, 48 h), the IC50 was 10.2 µM. Moreover, in data set [4], the “CC-v2 (curve class of the dose response curve)” value was 4; the “Efficacy (difference between neutral response and maximum compound response)” value worked out at 0; the “Max Resp (difference between neutral response and response at highest compound concentration)” value is recorded as -97.701. In data set [5], this compound gave a CC50 of over 50 µM.

Compound `C[C@@H]1O[C@@H](O[C@H]2[C@H](O[C@H]3[C@H](O)[C@@H](C(=O)O)O[C@@H](O[C@H]4CC[C@@]5(C)C(CC[C@]6(C)C5CC[C@]57OC[C@@]8(CCC(C)(C)CC85)[C@H](O)C[C@]76C)C4(C)C)[C@@H]3O[C@@H]3O[C@H](CO)[C@@H](O[C@@H]4OC[C@@H](O)[C@H](O)[C@H]4O)[C@H](O)[C@H]3O)O[C@H](CO)[C@H](O)[C@@H]2O)[C@H](O)[C@H](O)[C@H]1O` (stereo partly drawn) [NCGC00384492-01] yielded an Efficacy in data set [1] of -27.701. Also, the half-maximal activity concentration (AC50) in data set [1] (Zika virus, Vero) is 1.1e-05 M; in data set [1] (setting [6]), 1.1e-05 M. The IC50 was determined as 11 µM in data set [1] (Zika virus, Vero, 48 h); 5.64 µM in data set [2] (Zika virus, Vero, 48 h); 5.61 µM in data set [3] (Zika virus, Vero, 48 h). The “CC-v2 (curve class of the dose response curve)” value in data set [4] is -1.4. Also, in data set [4], the “Efficacy (difference between neutral response and maximum compound response)” value is recorded as -52.527. In addition, the “Max Resp (difference between neutral response and response at highest compound concentration)” value in data set [4] is reported as -99.118. Moreover, the CC50 at 48 h in data set [5] (Vero cells) was over 50 µM.

Compound `CC1(C)CC[C@]2(C(=O)O)CC[C@]3(C)C(=CCC4[C@@]5(C)CCC(O[C@@H]6OC[C@H](O)[C@H](O)[C@H]6O[C@@H]6O[C@H](CO)[C@@H](O)[C@H](O)[C@H]6O)[C@@](C)(CO)C5CC[C@]43C)[C@@H]2C1` (stereo partly drawn) [NCGC00347737-02] showed an Efficacy in data set [1] of -61.863. Besides, the AC50 in data set [1] (Zika virus, Vero) is 2.43e-07 M; in data set [1] (setting [6]) it was 2.43e-07 M. For the same compound, the IC50 turned out to be 0.24 µM in data set [1] (Zika virus, Vero, 48 h); 0.02 µM in data set [2] (Zika virus, Vero, 48 h); 12.3 µM in data set [3] (Zika virus, Vero, 48 h). For the same compound, the CC50 at 48 h in data set [5] (Vero cells) is over 50 µM.

Turning to `C/C=C(/C)C(=O)O[C@H]1[C@@H]2[C@H](C)C(=O)O[C@@H]2C[C@@H](C)[C@@H]2C=CC(=O)[C@]21C` [NCGC00385048-01], the Efficacy in data set [1] is reported as -20.801. Further, the IC50 in data set [2] (Zika virus, Vero, 48 h) was 0.65 µM; in data set [3] (Zika virus, Vero, 48 h), 18.1 µM. In data set [5], this compound returned a CC50 at 48 h of over 50 µM.

Turning to `CC(=O)O[C@@H]1[C@@H](O)[C@H]2O[C@@H]3C=C(C)[C@@H](O)C[C@]3(CO)[C@]1(C)[C@]21CO1` [NCGC00380400-01, NT-2 toxin], in data set [1], the “CC-v2 (curve class classification of the dose response curve)” value was -1.2, the Efficacy is given as -41.676, the “Log AC50 (M)” value is listed as -5.594 M and the “Max Resp” value is 6.747. Moreover, in data set [1], the concentration for half-maximal inhibition (IC50) was 2.55 µM. For the same compound, the AC50 in data set [1] (read-out: AC50) turned out to be 2.55e-06 M. Also, in data set [2], the concentration for half-maximal inhibition (IC50) came out at 2.29 µM. Besides, the IC50 in data set [3] was 0.64 µM. In data set [4], the “CC-v2 (curve class of the dose response curve)” value was -1.2; the “Efficacy (difference between neutral response and maximum compound response)” value is recorded as -59.911; the “Log AC50 (M)” value was -7.0328 M; the “Max Resp (difference between neutral response and response at highest compound concentration)” value is on record as -100.305. Also, in data set [4] (read-out: AC50), the AC50 was determined as 9.27e-08 M.
